Measured values taken from US20110082130A1 (LIGAND PHARMACEUTICALS, INC., priority 2006, published 2011).
pKi: −log10 of the molar value.

target: T1, chimeric human H3 receptor (Homo sapiens, UniProt Q9Y5N1); assay: Chimeric human H3 receptor GTP binding assay (agonist-stimulated GTP-gamma35S binding, Example 7); format: biochemical; details: Table II; "*" = Ki in assay of Example 7 less than 1 micromolar
T1 construct: made in house; host or cells: Sf9 insect cells (baculovirus); P2 membrane preparation
T1 sequence (Q9Y5N1 with tags, fused parts or gaps): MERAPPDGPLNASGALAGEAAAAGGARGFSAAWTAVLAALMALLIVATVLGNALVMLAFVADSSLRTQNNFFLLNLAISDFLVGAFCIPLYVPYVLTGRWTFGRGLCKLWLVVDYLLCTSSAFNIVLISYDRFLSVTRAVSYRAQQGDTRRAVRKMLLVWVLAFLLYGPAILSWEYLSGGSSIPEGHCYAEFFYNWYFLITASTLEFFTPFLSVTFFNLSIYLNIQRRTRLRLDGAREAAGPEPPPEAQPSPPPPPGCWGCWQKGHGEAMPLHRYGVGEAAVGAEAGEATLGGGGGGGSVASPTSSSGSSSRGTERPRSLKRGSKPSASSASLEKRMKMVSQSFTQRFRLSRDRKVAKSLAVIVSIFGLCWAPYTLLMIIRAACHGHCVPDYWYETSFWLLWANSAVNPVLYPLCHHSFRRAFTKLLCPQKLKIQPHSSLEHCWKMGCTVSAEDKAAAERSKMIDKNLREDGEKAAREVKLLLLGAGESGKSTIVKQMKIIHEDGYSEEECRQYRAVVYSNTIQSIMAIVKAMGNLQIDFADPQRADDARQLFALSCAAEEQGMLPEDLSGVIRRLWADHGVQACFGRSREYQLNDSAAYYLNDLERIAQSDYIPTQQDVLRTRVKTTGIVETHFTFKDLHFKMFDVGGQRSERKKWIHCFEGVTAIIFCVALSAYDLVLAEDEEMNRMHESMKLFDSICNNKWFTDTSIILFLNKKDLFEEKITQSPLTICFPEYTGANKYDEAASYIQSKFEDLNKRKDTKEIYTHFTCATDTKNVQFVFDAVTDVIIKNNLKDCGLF
Summary of the method: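 Sf9 membranes co-expressing chimeric human H3 receptor and heterotrimeric G-protein, 35 μg/tube, in pH 7.4 Tris buffer with 10 μM GDP. Test compounds (10^−10–10^−6 M) competed against 1 μM histamine, […] GTP-gamma35S, 60 min at room temperature. Filter-bound radioactivity counted; IC50 converted to Ki by Cheng-Prusoff. Agonism/inverse agonism tested without histamine (EC50).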

pKi, > 6.00:
O=C(CN1CCc2nn(-c3ccc(Cl)nn3)cc2C1)N1CCN(C2CCC2)CC1 [Compound 201, 2-(6-chloropyridazin-3-yl)-5-[2-(4-cyclobutylpiperazin-1-yl)-2-oxoethyl]-4,5,6,7-tetrahydro-2H-pyrazolo[4,3-c]pyridine]
CC(=O)c1ccc(-n2cc3c(n2)CCN(CC(=O)N2CCN(C4CCC4)CC2)C3)nn1 [Compound 202, 1-(6-{5-[2-(4-cyclobutylpiperazin-1-yl)-2-oxoethyl]-4,5,6,7-tetrahydro-2H-pyrazolo[4,3-c]pyridin-2-yl}pyridazin-3-yl)ethanone]
N#Cc1ccc(-n2cc3c(n2)CCN(CC(=O)N2CCN(C4CCC4)CC2)C3)nn1 [Compound 203, 6-{5-[2-(4-cyclobutylpiperazin-1-yl)-2-oxoethyl]-4,5,6,7-tetrahydro-2H-pyrazolo[4,3-c]pyridin-2-yl}pyridazine-3-carbonitrile]
O=C(CN1CCc2nc(N3CCCC3)ncc2C1)N1CCN(C2CCC2)CC1 [Compound 204, 6-[2-(4-cyclobutylpiperazin-1-yl)-2-oxoethyl]-2-pyrrolidin-1-yl-5,6,7,8-tetrahydropyrido[4,3-d]pyrimidine]
CC1CCCC1N1CCN(C(=O)CN2CCc3nc(N4CCOCC4)ncc3C2)CC1 (centres unmarked) [Compound 205, 6-{2-[4-(2-methylcyclopentyl)piperazin-1-yl]-2-oxoethyl}-2-morpholin-4-yl-5,6,7,8-tetrahydropyrido[4,3-d]pyrimidine]
CC(=O)c1ccc2c(c1)CCN(CC(=O)N1CCN(C3CCCC3C)CC1)C2 (centres unmarked) [Compound 206, 1-(2-{2-[4-(2-methylcyclopentyl)piperazin-1-yl]-2-oxoethyl}-1,2.3,4-tetrahydroisoquinolin-6-yl)ethanone]
O=C(CN1CCc2cc(-n3cncn3)ccc2C1)N1CCN(C2CCC2)CC1 [Compound 207, 2-[2-(4-cyclobutylpiperazin-1-yl)-2-oxoethyl]-6-(1H-1,2,4-triazol-1-yl)-1,2,3,4-tetrahydroisoquinoline]
O=C(CN1CCc2cc(-n3ccnn3)ccc2C1)N1CCN(C2CCC2)CC1 [Compound 208, 2-[2-(4-cyclobutylpiperazin-1-yl)-2-oxoethyl]-6-(1H-1,2,3-triazol-1-yl)-1,2,3,4-tetrahydroisoquinoline]
O=C(CN1CCc2cc(-n3nccn3)ccc2C1)N1CCN(C2CCC2)CC1 [Compound 209, 2-[2-(4-cyclobutylpiperazin-1-yl)-2-oxoethyl]-6-(2H-1,2,3-triazol-2-yl)-1,2,3,4-tetrahydroisoquinoline]
O=C(CN1CCc2cc(N3CCOC3=O)ccc2C1)N1CCN(C2CCC2)CC1 [Compound 210, 3-{2-[2-(4-cyclobutylpiperazin-1-yl)-2-oxoethyl]-1,2,3,4-tetrahydroisoquinolin-6-yl}-1,3-oxazolidin-2-one]
O=C(CN1CCc2cc(N3CCCCC3=O)ccc2C1)N1CCN(C2CCC2)CC1 [Compound 211, 1-{2-[2-(4-cyclobutylpiperazin-1-yl)-2-oxoethyl]-1,2,3,4-tetrahydroisoquinolin-6-yl}piperidin-2-one]
Cn1cccc(-c2ccc3c(c2)CCN(CC(=O)N2CCN(C4CCC4)CC2)C3)c1=O [Compound 212, 3-{2-[2-(4-cyclobutylpiperazin-1-yl)-2-oxoethyl]-1,2,3,4-tetrahydroisoquinolin-6-yl}-1-methylpyridin-2(1H)-one]
O=C(CN1CCc2cc(-n3cccnc3=O)ccc2C1)N1CCN(C2CCC2)CC1 [Compound 213, 1-{2-[2-(4-cyclobutylpiperazin-1-yl)-2-oxoethyl]-1,2,3,4-tetrahydroisoquinolin-6-yl}pyrimidin-2(1H)-one]
O=C(CN1CCc2c(cnn2-c2ccc(Cl)nn2)C1)N1CCN(C2CCC2)CC1 [Compound 214, 1-(6-chloropyridazin-3-yl)-5-[2-(4-cyclobutylpiperazin-1-yl)-2-oxoethyl]-4,5,6,7-tetrahydro-1H-pyrazolo[4,3-c]pyridine]
N#Cc1ccc(-n2ncc3c2CCN(CC(=O)N2CCN(C4CCC4)CC2)C3)nn1 [Compound 215, 6-{5-[2-(4-cyclobutylpiperazin-1-yl)-2-oxoethyl]-4,5,6,7-tetrahydro-1H-pyrazolo[4,3-c]pyridin-1-yl}pyridazine-3-carbonitrile]
CC(=O)c1ccc(-n2ncc3c2CCN(CC(=O)N2CCN(C4CCC4)CC2)C3)nn1 [Compound 216, 1-(6-{5-[2-(4-cyclobutylpiperazin-1-yl)-2-oxoethyl]-4,5,6,7-tetrahydro-1H-pyrazolo[4,3-c]pyridin-1-yl}pyridazin-3-yl)ethanone]
Cc1cnn(-c2ccc3c(c2)CCN(CC(=O)N2CCN(C4CCC4)CC2)C3)c1 [Compound 217, 2-[2-(4-cyclobutylpiperazin-1-yl)-2-oxoethyl]-6-(4-methyl-1H-pyrazol-1-yl)-1,2,3,4-tetrahydroisoquinoline]
CC1CCCC1N1CCN(C(=O)CN2CCc3nc(N4CCCC4)ncc3C2)CC1 (centres unmarked) [Compound 218, 6-{2-[4-(2-methylcyclopentyl)piperazin-1-yl]-2-oxoethyl}-2-pyrrolidin-1-yl-5,6,7,8-tetrahydropyrido[4,3-d]pyrimidine]
CC(O)c1ccc2c(c1)CCN(CC(=O)N1CCN(C3CCC3)CC1)C2 (centres unmarked) [Compound 219, 1-{2-[2-(4-cyclobutylpiperazin-1-yl)-2-oxoethyl]-1,2,3,4-tetrahydroisoquinolin-6-yl}ethanol]
O=C(CN1CCc2cc(N3CCOCC3)nnc2C1)N1CCN(C2CCC2)CC1 [Compound 220, 7-[2-(4-cyclobutylpiperazin-1-yl)-2-oxoethyl]-3-morpholin-4-yl-5,6,7,8-tetrahydropyrido[3,4-c]pyridazine]
O=C(CN1CCc2cc(N3CCCC3)nnc2C1)N1CCN(C2CCC2)CC1 [Compound 221, 7-[2-(4-cyclobutylpiperazin-1-yl)-2-oxoethyl]-3-pyrrolidin-1-yl-5,6,7,8-tetrahydropyrido[3,4-c]pyridazine]
O=C(CN1CCc2nc(N3CCCCC3)ccc2C1)N1CCN(C2CCC2)CC1 [Compound 222, 6-[2-(4-cyclobutylpiperazin-1-yl)-2-oxoethyl]-2-piperidin-1-yl-5,6,7,8-tetrahydro-1,6-naphthyridine]
CN(C)c1ccc2c(n1)CCN(CC(=O)N1CCN(C3CCC3)CC1)C2 [Compound 224, 6-[2-(4-cyclobutylpiperazin-1-yl)-2-oxoethyl]-N,N-dimethyl-5,6,7,8-tetrahydro-1,6-naphthyridin-2-amine]
O=C(CN1CCc2nc(N3CCC(F)C3)ccc2C1)N1CCN(C2CCC2)CC1 (centres unmarked) [Compound 225, 6-[2-(4-cyclobutylpiperazin-1-yl)-2-oxoethyl]-2-(3-fluoropyrrolidin-1-yl)-5,6,7,8-tetrahydro-1,6-naphthyridine]
O=C(CN1CCc2nc(N3CCC(O)C3)ccc2C1)N1CCN(C2CCC2)CC1 (centres unmarked) [Compound 226, 1-{6-[2-(4-cyclobutylpiperazin-1-yl)-2-oxoethyl]-5,6,7,8-tetrahydro-1,6-naphthyridin-2-yl}pyrrolidin-3-ol]
O=C(CN1CCc2nc(-n3cccc3)ccc2C1)N1CCN(C2CCC2)CC1 [Compound 227, 6-[2-(4-cyclobutylpiperazin-1-yl)-2-oxoethyl]-2-(1H-pyrrol-1-yl)-5,6,7,8-tetrahydro-1,6-naphthyridine]
